pIC50: −log10 of the molar value. Converted amounts (≈) assume the structure as drawn.
Key:
[1] = biological target: T1, acid ceramidase (hACR) (Homo sapiens, UniProt Q13510); assay: Acid ceramidase inhibition, biochemical fluorescent assay with cell lysates overexpressing acid ceramidase, substrate Rbm14-12; details: cell lysates overexpressing acid ceramidase; 1 hr preincubation at RT; pH 4.5; substrate Rbm14-12 6.3 μM; read-out: hACR IC50
T1 construct: expressed in transfected cells; cell lysate used
T1 sequence (Q13510 143-395 limits assumed): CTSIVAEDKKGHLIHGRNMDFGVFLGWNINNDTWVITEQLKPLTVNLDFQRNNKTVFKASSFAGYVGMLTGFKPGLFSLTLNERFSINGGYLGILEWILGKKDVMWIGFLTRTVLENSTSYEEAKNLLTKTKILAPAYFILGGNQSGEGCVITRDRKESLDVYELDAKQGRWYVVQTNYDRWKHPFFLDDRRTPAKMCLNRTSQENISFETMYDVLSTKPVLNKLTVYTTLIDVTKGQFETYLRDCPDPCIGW
T1 sequence (Q13510 22-142 limits assumed): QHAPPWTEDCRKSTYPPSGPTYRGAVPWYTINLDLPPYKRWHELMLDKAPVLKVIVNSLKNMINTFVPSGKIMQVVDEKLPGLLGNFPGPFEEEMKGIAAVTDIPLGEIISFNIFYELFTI
How it was run: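 Enzyme source was lysate (10 µg protein) from cells overexpressing acid ceramidase, preincubated 1 hr at RT with compound dose series in 25 mM NaAc, 100 mM NaCl, pH 4.5. Rbm14-12 (6.3 μM final) reacted 1 hr at RT; stop buffer (methanol, NaIO4, glycine, pH 10.6) 1 hr, fluorescence ex360/em446; IC50 from four-parameter fit.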

[2] = Compound solubility in water; assay type: physicochemical

Q: With `CN(C(=O)NCCCc1ccccc1)C1CN2CCC1CC2` (centres unmarked) [Example 64, 1-Methyl-3-(3-phenylpropyl)-1-(quinuclidin-3-yl)urea] as the compound, how does the pIC50 [1] read?
A: < 6.00

Q: What about the solubility [2] of the same compound?
A: 35.4 µM (≈ 10.7 µg/mL)

Q: Which results are given for `CN1CCC(c2ccc3c(c2)N(C(=O)NCCc2ccccc2)CCC3)CC1` [Example 3, 7-(1-Methylpiperidin-4-yl)-N-phenethyl-3,4-dihydroquinoline-1(2H)-carboxamide]?
A: pIC50 [1]: < 6.00; solubility [2]: 38.7 µM (≈ 14.6 µg/mL)

Q: With `CC1(C)Cc2ccccc2N1C(=O)NCCc1ccccc1` [Example 67, 2,2-Dimethyl-N-phenethylindoline-1-carboxamide] as the compound, how does the pIC50 [1] read?
A: < 6.00

Q: And the solubility [2]?
A: 8.3 µM (≈ 2.44 µg/mL)

Q: Which results are given for `CCCCNC(=O)N1CCN(C2CCCN(C)C2)CC1(C)C` (centres unmarked) [Example 38]?
A: pIC50 [1]: < 6.00; solubility [2]: 35.8 µM (≈ 11.1 µg/mL)

Q: With `CN(C(=O)NCCCc1ccccc1)C12CCC(CC1)CC2` [Example 63, 1-(Bicyclo[2.2.2]octan-1-yl)-1-methyl-3-(3-phenylpropyl)urea] as the compound, how does the pIC50 [1] read?
A: > 6.70

Q: What about the solubility [2] of the same compound?
A: 3.1 µM (≈ 0.931 µg/mL)

Q: With `CN1CCN(c2ccc3c(c2)CCC(C)(C)N3C(=O)NCCc2ccccc2)CC1` [Example 30, 2,2-Dimethyl-6-(4-methylpiperazin-1-yl)-N-phenethyl-3,4-dihydroquinoline-1(2H)-carboxamide] as the compound, how does the pIC50 [1] read?
A: 6.00 to 6.70

Q: What about the solubility [2] of the same compound?
A: 36.4 µM (≈ 14.8 µg/mL)

Q: With `CC1(C)CCc2c(C#N)cccc2N1C(=O)NCCc1ccccc1` [Example 47, 5-cyano-2,2-dimethyl-N-phenethyl-3,4-dihydroquinoline-1(2H)-carboxamide] as the compound, how does the pIC50 [1] read?
A: 6.00 to 6.70

Q: What about the solubility [2] of the same compound?
A: 1.7 µM (≈ 0.567 µg/mL)

Q: What does the source list for `CCOCCNC(=O)N1CCC(c2ccccc2)CC1(C)C` (centres unmarked) [Example 77, N-(2-Ethoxyethyl)-2,2-dimethyl-4-phenylpiperidine-1-carboxamide]?
A: pIC50 [1]: < 6.00; solubility [2]: 64.3 µM (≈ 19.6 µg/mL)

Q: With `CC1(C)CCc2ccccc2N1C(=O)NCCc1ccccc1` [Example 6, 2,2-Dimethyl-N-phenethyl-3,4-dihydroquinoline-1(2H)-carboxamide] as the compound, how does the pIC50 [1] read?
A: 6.00 to 6.70

Q: What about the solubility [2] of the same compound?
A: 3.2 µM (≈ 0.987 µg/mL)

Q: With `C=CCCCCNC(=O)N1CCC2(CCCCO2)CC1(C)C` (centres unmarked) [Example 44, N-(Hex-5-en-1-yl)-8,8-dimethyl-1-oxa-9-azaspiro[5.5]undecane-9-carboxamide] as the compound, how does the pIC50 [1] read?
A: 6.00 to 6.70

Q: What about the solubility [2] of the same compound?
A: 20.8 µM (≈ 6.42 µg/mL)

Q: With `CCCCNC(=O)N1CCN(C)CC1(C)C` [Example 37, N-Butyl-2,2,4-trimethylpiperazine-1-carboxamide] as the compound, how does the pIC50 [1] read?
A: < 6.00

Q: And the solubility [2]?
A: 19.1 µM (≈ 4.34 µg/mL)

Q: What does the source list for `CC1(C)COc2ccccc2N1C(=O)NCCc1ccccc1` [Example 16, 3,3-Dimethyl-N-phenethyl-2H-benzo[b][1,4]oxazine-4(3H)-carboxamide]?
A: pIC50 [1]: < 6.00; solubility [2]: 3.1 µM (≈ 0.962 µg/mL)

Q: With `CC1(C)c2ncccc2CCN1C(=O)NCCc1ccccc1` [Example 14, 8,8-Dimethyl-N-phenethyl-5,6-dihydro-1,7-naphthyridine-7(8H)-carboxamide] as the compound, how does the pIC50 [1] read?
A: < 6.00

Q: And the solubility [2]?
A: 24 µM (≈ 7.43 µg/mL)
